For 18 compounds, IC50 results are on record in patent US20140309265A1, “MACROCYCLIC COMPOUNDS FOR INHIBITION OF INHIBITORS OF APOPTOSIS” (Ensemble Therapeutics, priority 2011, published 2014).

Common to all, as to format: binding
One assay addresses T1, His-BIR3 (241-356, XIAP) (Homo sapiens, UniProt P98170).
T1 construct: additions of His-BIR3 (241-356, XIAP), fluorescein labeled SMAC peptide
In words: XIAP-BIR3/SMAC Homogeneous Time Resolved Fluorescence (HTRF) Assay. As to conditions: Table 4. Background: In TR-FRET formats the signal depends on donor and acceptor labels being close together.

Assay [1] addresses T2, His-BIR2-3 (125-356, C202A/C213G, XIAP) (Homo sapiens, UniProt P98170, C202A/C213G).
T2 construct: additions of His-BIR2-3 (125-356, C202A/C213G, XIAP), fluorescein labeled dimeric SMAC peptide
The assay can be described thus: XIAP-BIR2-3 Dimeric SMAC Peptide Homogeneous Time Resolved Fluorescence (HTRF) Assay. As to conditions: XIAP BIR2-3, HTRF, Table 4.

Assay [2] deals with T3, XIAP His-BIR2 (124-240/C202A/C213G) (Homo sapiens, UniProt P98170, C202A/C213G).
T3 construct: additions of His-BIR2 (124-240/C202A/C213G), Biotinylated SMAC peptide
In words: XIAP-BIR2/SMAC Peptide AlphaScreen Assay. Conditions: XIAP BIR2, AlphaScreen, Table 2; read-out: BIR2 IC50. On the procedure:
A. XIAP-BIR2/SMAC Peptide AlphaScreen Assay Assays were performed in white, flat-bottom, 384-well ProxiPlates (Perkin Elmer). […] The reaction was incubated at room temperature for 60 minutes. After 60 minutes, 2.5 μL of Alphascreen detection reagent (Perkin Elmer) was added to the reaction mixture and incubated at room temperature in the dark for 120 minutes. The Alphascreen signal generated by the reaction was detected on the Envision Plate Reader. […] Compounds were dissolved at 10 mM in dimethylsulfoxide (DMSO) and evaluated at eleven concentrations. IC50 values were derived by non-linear regression analysis.

T2 sequence (P98170 125-356 C202A/C213G): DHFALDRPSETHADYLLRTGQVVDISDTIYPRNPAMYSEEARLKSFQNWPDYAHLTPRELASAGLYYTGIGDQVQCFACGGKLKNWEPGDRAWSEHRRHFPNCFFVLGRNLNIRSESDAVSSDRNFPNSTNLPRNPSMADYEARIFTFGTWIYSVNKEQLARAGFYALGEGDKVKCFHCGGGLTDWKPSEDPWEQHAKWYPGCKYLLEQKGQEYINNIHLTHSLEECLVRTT
T1 sequence (P98170 241-356): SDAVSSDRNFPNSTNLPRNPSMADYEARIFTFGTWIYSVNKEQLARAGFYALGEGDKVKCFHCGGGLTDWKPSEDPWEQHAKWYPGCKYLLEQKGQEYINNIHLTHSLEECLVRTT
T3 sequence (P98170 124-240 C202A/C213G): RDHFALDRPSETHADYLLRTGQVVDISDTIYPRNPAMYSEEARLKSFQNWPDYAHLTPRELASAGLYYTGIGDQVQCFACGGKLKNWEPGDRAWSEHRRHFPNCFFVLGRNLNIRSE

In the case of `CN[C@@H](C)C(=O)N[C@H](C(=O)N1C[C@@H]2C[C@H]1C(=O)N[C@@H](Cc1ccc3ccccc3c1)C(=O)N[C@H](C(=O)O)Cc1ccc(cc1)OCCCc1cn(nn1)[C@H]1C[C@@H](C(=O)N[C@@H](Cc3ccc4ccccc4c3)C(=O)N[C@H](C(=O)O)Cc3ccc(cc3)OCCCc3cn2nn3)N(C(=O)[C@@H](NC(=O)[C@H](C)NC)C(C)(C)C)C1)C(C)(C)C` [Compound 1011], the concentration for half-maximal inhibition (IC50) (as a rule, the point on the concentration scale where inhibition reaches its midpoint) was below 10 nM on His-BIR3 (241-356, XIAP) and 1 to 10 nM in assay [1].
For the compound `CN[C@@H](C)C(=O)N[C@H](C(=O)N1C[C@@H]2C[C@H]1C(=O)N[C@@H](Cc1ccc3ccccc3c1)C(=O)N[C@H](C(=O)O)Cc1ccc(cc1)OCc1cn(nn1)[C@H]1C[C@@H](C(=O)N[C@@H](Cc3ccc4ccccc4c3)C(=O)N[C@H](C(=O)NS(=O)(=O)c3ccccn3)Cc3ccc(cc3)OCc3cn2nn3)N(C(=O)[C@@H](NC(=O)[C@H](C)NC)C(C)(C)C)C1)C(C)(C)C` [Compound 1035], the IC50 against His-BIR3 (241-356, XIAP) was below 10 nM; in assay [1], at most 1 nM.
Turning to `CN[C@@H](C)C(=O)N[C@H](C(=O)N1C[C@@H]2C[C@H]1C(=O)N[C@@H](Cc1ccc3ccccc3c1)C(=O)N[C@H](C(=O)O)Cc1ccc(cc1)OCc1cn(nn1)[C@H]1C[C@@H](C(=O)N[C@@H](Cc3ccc4ccccc4c3)C(=O)N[C@H](C(=O)N3CCC(C(=O)O)C3)Cc3ccc(cc3)OCc3cn2nn3)N(C(=O)[C@@H](NC(=O)[C@H](C)NC)C(C)(C)C)C1)C(C)(C)C` (stereo partly shown) [Compound 1021], the IC50 against His-BIR3 (241-356, XIAP) is below 10 nM; in assay [1], 1 to 10 nM.
In the case of `CN[C@@H](C)C(=O)N[C@H](C(=O)N1C[C@@H]2C[C@H]1C(=O)N[C@@H](Cc1ccc3ccccc3c1)C(=O)N[C@H](C(=O)O)Cc1ccc(cc1)OCc1cn(nn1)[C@H]1C[C@@H](C(=O)N[C@@H](Cc3ccc4ccccc4c3)C(=O)N[C@H](C(=O)NCc3cccc(-c4nnn[nH]4)c3)Cc3ccc(cc3)OCc3cn2nn3)N(C(=O)[C@@H](NC(=O)[C@H](C)NC)C(C)(C)C)C1)C(C)(C)C` [Compound 1029], the IC50 lay within 10 to 100 nM at His-BIR3 (241-356, XIAP) and 1 to 10 nM in assay [1].
For `CN[C@@H](C)C(=O)N[C@H](C(=O)N1C[C@@H]2C[C@H]1C(=O)N[C@@H](Cc1ccc3ccccc3c1)C(=O)N[C@H](C(=O)O)Cc1ccc(cc1)OCc1cn(nn1)[C@H]1C[C@@H](C(=O)N[C@@H](Cc3ccc4ccccc4c3)C(=O)N[C@H](C(=O)N[C@@H](CCCCN)C(=O)N[C@@H](CO)C(=O)O)Cc3ccc(cc3)OCc3cn2nn3)N(C(=O)[C@@H](NC(=O)[C@H](C)NC)C(C)(C)C)C1)C(C)(C)C` [Compound 1034], the half-inhibitory concentration (IC50) against His-BIR3 (241-356, XIAP) was 10 to 100 nM; in assay [1], above 10 nM.
On to `CNC(C)C(=O)NC(C(=O)N1CC2CC1C(=O)NC(Cc1ccc3ccccc3c1)C(=O)NC(C(=O)O)Cc1ccc(cc1)OCc1cn(nn1)C1CC(C(=O)NC(Cc3ccc4ccccc4c3)C(=O)NC(C(=O)O)c3ccc(cc3)OCc3cn2nn3)N(C(=O)C(NC(=O)C(C)NC)C(C)(C)C)C1)C(C)(C)C` (stereo not shown) [Compound 1013], for which the IC50 at His-BIR3 (241-356, XIAP) was below 10 nM; in assay [1], at most 1 nM.
On to `CN[C@@H](C)C(=O)N[C@H](C(=O)N1C[C@@H]2C[C@H]1C(=O)N[C@@H](Cc1ccc3ccccc3c1)C(=O)N[C@H](C(=O)O)Cc1ccc(cc1)OCc1cn(nn1)[C@H]1C[C@@H](C(=O)N[C@@H](Cc3ccc4ccccc4c3)C(=O)N[C@H](C(=O)NCC(=O)O)Cc3ccc(cc3)OCc3cn2nn3)N(C(=O)[C@@H](NC(=O)[C@H](C)NC)C(C)(C)C)C1)C(C)(C)C` [Compound 1018], for which the IC50 on His-BIR3 (241-356, XIAP) is below 10 nM; in assay [1], 1 to 10 nM.
With `CN[C@@H](C)C(=O)N[C@H](C(=O)N1C[C@@H]2C[C@H]1C(=O)N[C@@H](Cc1ccc3ccccc3c1)C(=O)N[C@H](C(=O)O)Cc1ccc(cc1)NC(=O)CCc1cn(nn1)[C@H]1C[C@@H](C(=O)N[C@@H](Cc3ccc4ccccc4c3)C(=O)N[C@H](C(=O)O)Cc3ccc(cc3)NC(=O)CCc3cn2nn3)N(C(=O)[C@@H](NC(=O)[C@H](C)NC)C(C)(C)C)C1)C(C)(C)C` [Compound 1012], the IC50 against His-BIR3 (241-356, XIAP) was below 10 nM; in assay [1], 1 to 10 nM.
As for `CN[C@@H](C)C(=O)N[C@H](C(=O)N1C[C@@H]2C[C@H]1C(=O)N[C@@H](Cc1ccc3ccccc3c1)C(=O)N[C@H](C(=O)O)Cc1ccc(cc1)OCc1cn(nn1)[C@H]1C[C@@H](C(=O)N[C@@H](Cc3ccc4ccccc4c3)C(=O)N[C@H](C(=O)NC(CO)CO)Cc3ccc(cc3)OCc3cn2nn3)N(C(=O)[C@@H](NC(=O)[C@H](C)NC)C(C)(C)C)C1)C(C)(C)C` [Compound 1042], the IC50 at His-BIR3 (241-356, XIAP) is 10 to 100 nM; in assay [1], 1 to 10 nM.
In the case of `CN[C@@H](C)C(=O)N[C@H](C(=O)N1C[C@@H]2C[C@H]1C(=O)N[C@@H](Cc1ccc3ccccc3c1)C(=O)N[C@H](C(=O)O)Cc1ccc(cc1)OCc1cn(nn1)[C@H]1C[C@@H](C(=O)N[C@@H](Cc3ccc4ccccc4c3)C(=O)N[C@H](C(=O)N3CC(C(=O)O)C3)Cc3ccc(cc3)OCc3cn2nn3)N(C(=O)[C@@H](NC(=O)[C@H](C)NC)C(C)(C)C)C1)C(C)(C)C` [Compound 1026], the IC50 against His-BIR3 (241-356, XIAP) lay within 10 to 100 nM; in assay [1] it was 1 to 10 nM.
As to `CN[C@@H](C)C(=O)N[C@H](C(=O)N1C[C@@H]2C[C@H]1C(=O)N[C@@H](Cc1ccc3ccccc3c1)C(=O)N[C@H](C(=O)O)Cc1ccc(cc1)OCc1cn(nn1)[C@H]1C[C@@H](C(=O)N[C@@H](Cc3ccc4ccccc4c3)C(=O)N[C@H](C(=O)O)Cc3ccc(cc3)OCc3cn2nn3)N(C(=O)[C@@H](NC(=O)[C@H](C)NC)C23CC4CC(CC(C4)C2)C3)C1)C12CC3CC(CC(C3)C1)C2` [Compound 1008], the IC50 against His-BIR3 (241-356, XIAP) was 10 to 100 nM; in assay [1] it was at most 1 nM.
Take `CN[C@@H](C)C(=O)N[C@H](C(=O)N1C[C@@H]2C[C@H]1C(=O)N[C@@H](Cc1ccc3ccccc3c1)C(=O)N[C@H](C(=O)O)Cc1ccc(cc1)OCc1cn(nn1)[C@H]1C[C@@H](C(=O)N[C@@H](Cc3ccc4ccccc4c3)C(=O)N[C@H](C(=O)N(C)CC(=O)O)Cc3ccc(cc3)OCc3cn2nn3)N(C(=O)[C@@H](NC(=O)[C@H](C)NC)C(C)(C)C)C1)C(C)(C)C` [Compound 1020]: the IC50 lay within 10 to 100 nM at His-BIR3 (241-356, XIAP) and 1 to 10 nM in assay [1].
Consider `CN[C@@H](C)C(=O)N[C@H](C(=O)N1C[C@@H]2CC1C(=O)N[C@@H](Cc1ccccc1)C(=O)N[C@H](C(=O)O)Cc1ccc(cc1)OCc1cn(nn1)[C@H]1C[C@@H](C(=O)N[C@@H](Cc3ccccc3)C(=O)NCc3cn2nn3)N(C(=O)[C@@H](NC(=O)[C@H](C)NC)C(C)C)C1)C(C)C` [Compound 135], for which the IC50 in assay [2] is below 2000 nM.
On to `CN[C@@H](C)C(=O)N[C@H](C(=O)N1C[C@@H]2C[C@H]1C(=O)N[C@@H](Cc1ccc3ccccc3c1)C(=O)N[C@H](C(=O)O)Cc1ccc(cc1)OCc1cn(nn1)[C@H]1C[C@@H](C(=O)N[C@@H](Cc3ccc4ccccc4c3)C(=O)N[C@H](C(=O)O)Cc3ccc(cc3)OCc3cn2nn3)N(C(=O)[C@@H](NC(=O)[C@H](C)NC)C23CC4CC(CC(O)(C4)C2)C3)C1)C12CC3CC(CC(O)(C3)C1)C2` [Compound 1009], for which the IC50 is below 10 nM against His-BIR3 (241-356, XIAP) and 1 to 10 nM in assay [1].
Take `CN[C@@H](C)C(=O)N[C@H](C(=O)N1C[C@@H]2C[C@H]1C(=O)N[C@@H](Cc1ccc3ccccc3c1)C(=O)N[C@H](C(=O)O)Cc1ccc(cc1)OCc1cn(nn1)[C@H]1C[C@@H](C(=O)N[C@@H](Cc3ccc4ccccc4c3)C(=O)N[C@H](C(=O)NS(=O)(=O)CC3CC3)Cc3ccc(cc3)OCc3cn2nn3)N(C(=O)[C@@H](NC(=O)[C@H](C)NC)C(C)(C)C)C1)C(C)(C)C` [Compound 1037]: the IC50 was 10 to 100 nM against His-BIR3 (241-356, XIAP) and 1 to 10 nM in assay [1].
With `CN[C@@H](C)C(=O)N[C@H](C(=O)N1C[C@@H]2C[C@H]1C(=O)N[C@@H](Cc1ccccc1)C(=O)NCc1cn(nn1)[C@H]1C[C@@H](C(=O)N[C@@H](Cc3ccccc3)C(=O)NCc3cn2nn3)N(C(=O)[C@@H](NC(=O)[C@H](C)NC)C(C)C)C1)C(C)C` [Compound 116], in assay [2], the IC50 is below 2000 nM.
Turning to `CN[C@@H](C)C(=O)N[C@H](C(=O)N1C[C@@H]2C[C@H]1C(=O)N[C@@H](Cc1ccc3ccccc3c1)C(=O)N[C@H](C(=O)O)Cc1ccc(cc1)OCc1cn(nn1)[C@H]1C[C@@H](C(=O)N[C@@H](Cc3ccc4ccccc4c3)C(=O)N[C@H](C(=O)NS(=O)(=O)c3ccc(OC(F)(F)F)cc3)Cc3ccc(cc3)OCc3cn2nn3)N(C(=O)[C@@H](NC(=O)[C@H](C)NC)C(C)(C)C)C1)C(C)(C)C` [Compound 1036], the half-inhibitory concentration (IC50) at His-BIR3 (241-356, XIAP) fell in the range of 10 to 100 nM; in assay [1], 1 to 10 nM.
For `CN[C@@H](C)C(=O)N[C@H](C(=O)N1C[C@@H]2C[C@H]1C(=O)N[C@@H](Cc1ccc3ccccc3c1)C(=O)N[C@H](C(=O)O)Cc1ccc(cc1)OCc1cn(nn1)[C@H]1C[C@@H](C(=O)N[C@@H](Cc3ccc4ccccc4c3)C(=O)N[C@H](C(=O)NS(=O)(=O)CCCNC(C)=O)Cc3ccc(cc3)OCc3cn2nn3)N(C(=O)[C@@H](NC(=O)[C@H](C)NC)C(C)(C)C)C1)C(C)(C)C` [Compound 1052], the IC50 against His-BIR3 (241-356, XIAP) is below 10 nM; in assay [1], at most 1 nM.
